Experimental findings from patent US6355631B1, “Pharmaceutical compositions containing azetidine derivatives, novel azetidine derivatives and their preparation” (Aventis Pharma S.A., priority 2000, dated 2002) are described below.

Structures are written as SMILES.

The compound `O=[SH](=O)N(Cc1cc(F)cc(F)c1)C1CN(C(c2ccc(F)cc2)c2ccc(F)cc2)C1` [Example 34, N-{1-[Bis(4-fluorophenyl)methyl]azetidin-3-yl}-N-(3,5-difluorophenyl)methylsulfonamide] showed a melting point of 98 °C.

Consider `O=[SH](=O)N(Cc1ccccc1)CC1CN(C(c2ccc(Cl)cc2)c2ccc(Cl)cc2)C1` [Example 23, N-Benzyl-N-{1-[bis(4-chlorophenyl)methyl]azetidin-3-yl}methylsulfonamide], for which the melting point is 171 °C.

One may read the melting point as the temperature, or range, at which the solid turns liquid.
